Earlier results on four compounds are cited in US11737976B2, “Drug delivery means” (priority 2006, dated 2023).

Data set [1] concerns endothelial and smooth muscle cells.
Data set [2] concerns arterial smooth muscle cell.
Data set [3] concerns oxidized cholesterols present in the plasma. The settings on record: increased concentrations of vitamin E in the blood; some oxidized cholesterols, not all; not reversed once packed into plaques.

Read-outs that look alike come from different tables or passages of the source.

With `CC(C)CCC[C@@H](C)[C@H]1CC[C@H]2[C@@H]3C(=O)C=C4C[C@@H](O)CC[C@]4(C)[C@H]3CC[C@]12C` [7-Keto, 5-Cholesten-3β-ol-7-one], the “cytotoxicity relative to the other oxidized cholesterols studied” value in the data set on cells is “most cytotoxic”. In addition, the apoptosis in fibroblasts entry in the data set with fibroblasts is recorded as “did not cause apoptosis”. The induction of apoptosis entry in data set [1] is on record as “able to induce apoptosis”.

In the case of `CC(C)CCC[C@@H](C)[C@H]1CC[C@H]2[C@@H]3[C@@H](O)C=C4C[C@@H](O)CC[C@]4(C)[C@H]3CC[C@]12C` [7B, 7β-hydroxycholesterol], in the data set on fibroblasts (necrosis occurred instead), the apoptosis in fibroblasts result is given as “did not cause apoptosis”. In addition, in data set [1] (cells of the vascular wall), the induction of apoptosis result was “able to induce apoptosis”.

On to `C[C@H](CCCC(C)(C)O)[C@H]1CC[C@H]2[C@@H]3CC=C4C[C@@H](O)CC[C@]4(C)[C@H]3CC[C@]12C` [25OH, 25-hydroxycholesterol], for which the “changes in the arterial smooth muscle cell” value in data set [2] is “causes changes”.

Take vitamin E: in data set [3], the “lowering the amount of oxidized cholesterols in plasma” value is given as “effective in lowering the amount of some oxidized cholesterols”.
